Here are results for eight compounds from patent US20220324835A1 (Nurix Therapeutics, Inc., priority 2018, published 2022).

Where only a bound is given, the exact number is not on record here.

The subject of test [1] is T-cell. Kind of test: CD25 cell surface staining on T-cells stimulated with anti-CD3 antibody alone (Biological Example 2). To be noted: T-cell, fold change over baseline, primary human total T-cells, read-out: CD25 staining Anti-CD3 stimulation; for fold induction at 1 µM: 1 μM Cbl-b inhibitor; for fold induction at 8 µM: 8 μM Cbl-b inhibitor. The format is cell-based, human.

In test [2] the test system is T-cell. The experiment in a line: IL-2 secretion from T-cells stimulated with anti-CD3 antibody alone (Biological Example 2). To be noted: T-cell, fold change over baseline, primary human total T-cells, read-out: IL-2 secretion Anti-CD3 stimulation; for fold induction at 1 µM: 1 μM Cbl-b inhibitor; for fold induction at 8 µM: 8 μM Cbl-b inhibitor. The format is cell-based, human.

Turning to `C[C@H](Cc1nncn1C)c1cccc(NC(=O)c2cc(C(C)(C)O)cc(C(F)(F)F)n2)c1` [Compound 320, 4-(2-hydroxypropan-2-yl)-N-[3-[(2R)-1-(4-methyl-4H-1,2,4-triazol-3-yl)propan-2-yl]phenyl]-6-(trifluoromethyl)pyridine-2-carboxamide], in the test on T-cell [1], the fold induction at 1 µM lay within 0.801 to 1 and the fold induction at 8 µM was more than 1. In addition, in the test with T-cell [2], the fold induction at 1 µM was in the range of 0.101 to 0.15 and the fold induction at 8 µM was more than 0.201.
In the same order, the values of `C[C@H](Cc1nncn1C)c1cccc(NC(=O)c2cccc(C(C)(C)C)n2)c1` [Compound 321, (R)-6-(Tert-butyl)-N-(3-(1-(4-methyl-4H-1,2,4-triazol-3-yl)propan-2-yl)phenyl)picolinamide] are 0.801 to 1, more than 1, 0.051 to 0.1 and more than 0.201.
The like results for `CC1CCc2c1n[nH]c2C(=O)Nc1cccc([C@H](C)Cc2nncn2C)c1` (stereo partly drawn) [Compound 323, 6-Methyl-N-(3-((R)-1-(4-methyl-4H-1,2,4-triazol-3-yl)propan-2-yl)phenyl)-2,4,5,6-tetrahydrocyclopenta[c]pyrazole-3-carboxamide] were, in that order, 0.601 to 0.8, more than 1, 0.101 to 0.15 and more than 0.201.
With `Cc1cc(C(=O)Nc2cccc([C@H](C)Cc3nocc3C)c2)nc(C2CC2)n1` [Compound 330, (R)-2-cyclopropyl-6-methyl-N-(3-(1-(4-methylisoxazol-3-yl)propan-2-yl)phenyl)pyrimidine-4-carboxamide], in the test with T-cell [1], the fold induction at 1 µM fell in the range of 0.801 to 1 and the fold induction at 8 µM is more than 1. In the test on T-cell [2], the fold induction at 1 µM is 0.051 to 0.1 and the fold induction at 8 µM was more than 0.201.
In the same order, the values of `C[C@H](Cc1nncn1C)c1cc(NC2COC2)nc(N2Cc3c(cccc3C(F)(F)F)C2=O)c1` [Compound 352, 2-{4-[(2R)-1-(4-methyl-4H-1,2,4-triazol-3-yl)propan-2-yl]-6-[(oxetan-3-yl)amino]pyridin-2-yl}-4-(trifluoromethyl)-2,3-dihydro-1H-isoindol-1-one] are 0.801 to 1, more than 1, 0.051 to 0.1 and more than 0.201.
The like results for `CC(C)Nc1cc([C@H](C)Cc2nncn2C)cc(N2Cc3c(cccc3C(F)(F)F)C2=O)n1` [Compound 353, 2-{4-[(2R)-1-(4-methyl-4H-1,2,4-triazol-3-yl)propan-2-yl]-6-[(propan-2-yl)amino]pyridin-2-yl}-4-(trifluoromethyl)-2,3-dihydro-1H-isoindol-1-one] were, in that order, 0.801 to 1, more than 1, 0.101 to 0.15 and more than 0.201.
In the case of `CCOc1cc([C@H](C)Cc2nncn2C)cc(N2Cc3c(cccc3C(F)(F)F)C2=O)n1` [Compound 358, (R)-2-(6-ethoxy-4-(1-(4-methyl-4H-1,2,4-triazol-3-yl)propan-2-yl)pyridin-2-yl)-4-(trifluoromethyl)isoindolin-1-one], in the test with T-cell [1], the fold induction at 1 µM is more than 1 and the fold induction at 8 µM was more than 1. For the same compound, in the test on T-cell [2], the fold induction at 1 µM fell in the range of 0.151 to 0.2 and the fold induction at 8 µM was more than 0.201.
`CCNc1cc([C@H](C)Cc2nncn2C)cc(N2Cc3c(cccc3C(F)(F)F)C2=O)n1` [Compound 360, (R)-2-(6-(ethylamino)-4-(1-(4-methyl-4H-1,2,4-triazol-3-yl)propan-2-yl)pyridin-2-yl)-4-(trifluoromethyl)isoindolin-1-one]: in the test with T-cell [1], the fold induction at 1 µM is more than 1 and the fold induction at 8 µM was more than 1. Also, in the test with T-cell [2], the fold induction at 1 µM is more than 0.201 and the fold induction at 8 µM is more than 0.201.
